In this test the target is T1, Multidrug efflux pump subunit AcrB (Escherichia coli (strain B / BL21-DE3), UniProt P31224).
T1 sequence (P31224 whole entry): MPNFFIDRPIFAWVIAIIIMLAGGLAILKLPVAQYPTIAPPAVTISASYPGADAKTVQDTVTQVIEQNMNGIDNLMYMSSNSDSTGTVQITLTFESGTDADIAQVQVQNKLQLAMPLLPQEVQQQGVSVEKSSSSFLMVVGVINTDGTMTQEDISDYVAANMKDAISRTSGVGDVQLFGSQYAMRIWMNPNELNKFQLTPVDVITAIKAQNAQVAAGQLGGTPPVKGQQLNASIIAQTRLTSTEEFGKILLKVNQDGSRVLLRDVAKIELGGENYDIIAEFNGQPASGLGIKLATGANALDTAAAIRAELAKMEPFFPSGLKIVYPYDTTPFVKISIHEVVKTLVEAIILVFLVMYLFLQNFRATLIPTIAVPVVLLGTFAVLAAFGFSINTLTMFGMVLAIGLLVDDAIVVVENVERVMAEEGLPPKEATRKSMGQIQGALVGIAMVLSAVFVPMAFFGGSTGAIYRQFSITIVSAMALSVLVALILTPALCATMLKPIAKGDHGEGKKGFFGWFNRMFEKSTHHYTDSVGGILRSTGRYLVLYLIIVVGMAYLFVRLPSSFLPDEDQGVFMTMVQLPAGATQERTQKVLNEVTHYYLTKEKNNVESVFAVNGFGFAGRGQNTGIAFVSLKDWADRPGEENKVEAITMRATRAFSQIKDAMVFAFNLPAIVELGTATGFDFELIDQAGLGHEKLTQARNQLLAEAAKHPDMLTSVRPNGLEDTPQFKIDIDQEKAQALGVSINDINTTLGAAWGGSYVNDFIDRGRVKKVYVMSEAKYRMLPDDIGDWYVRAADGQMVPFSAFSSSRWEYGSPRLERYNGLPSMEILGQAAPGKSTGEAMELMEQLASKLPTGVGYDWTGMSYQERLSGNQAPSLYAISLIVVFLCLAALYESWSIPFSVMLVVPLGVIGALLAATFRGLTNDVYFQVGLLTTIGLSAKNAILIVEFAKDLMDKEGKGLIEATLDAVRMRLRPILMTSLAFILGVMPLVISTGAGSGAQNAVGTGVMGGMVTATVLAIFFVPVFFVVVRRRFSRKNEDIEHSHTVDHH
Put plainly: Binding Assay. From the text:
Binding of inhibitors and substrates to immobilized AcrB.

Experimental findings from BindingDB's records for doi:10.1016/j.chembiol.2011.02.011 (University of Oklahoma, 2011) are described below.

Where a SMILES comes first, the peptide text is derived from it. [ ]: non-standard residue; d: D form. The star is where a group is joined. ξ: configuration not given here. ξR = N=C(N)NCCCC(N)C(=O)O; βNA = c1ccc2cc(N*)ccc2c1

For `CO[C@@H]1[C@@H](OC(N)=O)[C@@H](O)[C@H](Oc2ccc3c(O)c(NC(=O)c4ccc(O)c(CC=C(C)C)c4)c(=O)oc3c2C)OC1(C)C` [Coumarin-Based, DNA Gyrase Inhibitor], binding (pH 7.5) was put at a Kd of 530 µM.

In the case of `NC(N)=NCCCC(NC(=O)[C@@H](N)Cc1ccccc1)C(=O)Nc1ccc2ccccc2c1` (stereo partly drawn) [MC-207,110] (H-Phe-[ξR]-βNA), the Kd (as a rule, the concentration at which binding is half-saturated) reads like this: (pH 6) 110 µM; (pH 7.5) 590 µM.
